Source: patent US20140255392A1 (BAYER INTELLECTUAL PROPERTY GMBH, priority 2011, published 2014)

molecular target: T1, human kinase Mps-1 (Homo sapiens, UniProt P33981); assay: Mps-1 kinase assay (TR-FRET); assay type: biochemical; details: N-terminally GST-tagged human full length recombinant Mps-1; 10 μM ATP; 1 μM peptide substrate; 60 min at 22° C.
T1 construct: N-terminally GST-tagged human full length recombinant Mps-1 kinase; GST (N); purchased Invitrogen, Karslruhe, Germany PV4071
T1 sequence (P33981 1-857): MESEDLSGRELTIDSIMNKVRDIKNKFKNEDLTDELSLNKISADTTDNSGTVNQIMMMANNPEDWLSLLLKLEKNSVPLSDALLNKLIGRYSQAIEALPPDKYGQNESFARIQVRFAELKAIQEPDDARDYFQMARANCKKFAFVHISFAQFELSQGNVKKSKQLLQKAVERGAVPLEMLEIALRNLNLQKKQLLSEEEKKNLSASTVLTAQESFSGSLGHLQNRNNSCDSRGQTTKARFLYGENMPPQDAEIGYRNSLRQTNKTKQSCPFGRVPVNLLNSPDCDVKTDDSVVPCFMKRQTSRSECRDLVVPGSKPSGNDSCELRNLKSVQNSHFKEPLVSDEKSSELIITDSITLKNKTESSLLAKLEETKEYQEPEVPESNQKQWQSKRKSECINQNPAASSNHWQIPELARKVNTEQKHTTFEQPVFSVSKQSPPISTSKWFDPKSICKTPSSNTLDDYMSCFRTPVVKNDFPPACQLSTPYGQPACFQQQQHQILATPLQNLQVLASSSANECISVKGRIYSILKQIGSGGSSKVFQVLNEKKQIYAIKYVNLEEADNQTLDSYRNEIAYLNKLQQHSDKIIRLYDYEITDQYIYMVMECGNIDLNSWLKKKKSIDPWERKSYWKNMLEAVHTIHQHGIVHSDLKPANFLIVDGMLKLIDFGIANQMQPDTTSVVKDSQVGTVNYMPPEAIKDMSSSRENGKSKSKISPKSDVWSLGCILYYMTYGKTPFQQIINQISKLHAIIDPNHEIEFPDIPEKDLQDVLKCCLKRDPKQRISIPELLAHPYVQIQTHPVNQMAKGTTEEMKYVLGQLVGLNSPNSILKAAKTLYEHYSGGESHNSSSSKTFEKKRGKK
Summary of the method: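 Read-out: TR-FRET from Europium-labelled anti-phospho(Ser/Thr) antibody to SA-XLent after 1 h detection incubation at 22° C. Inhibition of kinase activity measured.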

| Compound | IC50 [nM] |
| --- | --- |
| Cc1cc(-c2cnc3c(NCCC(F)(F)F)cc(Oc4cccc(F)c4)cn23)ccc1C(=O)NC1(CO)CC1 [Example 50, 4-{6-(3-Fluorophenoxy)-8-[(3,3,3-trifluoropropyl)amino]imidazo[1,2-a]pyridin-3-yl}-N-[1-(hydroxymethyl)cyclopropyl]-2-methylbenzamide] | 7.3 |
| CCNC(=O)c1ccc(-c2cnc3c(NCCC(F)(F)F)cc(C(C)O)cn23)cc1C (racemic) [Example 145, N-ethyl-4-{6-[(1RS)-1-hydroxyethyl]-8-[(3,3,3-trifluoropropyl)amino]imidazo[1,2-a]pyridin-3-yl}-2-methylbenzamide] | 250 |
| CNC(=O)c1ccc(-c2cnc3c(NCCC(F)(F)F)cc(-c4ccc(C(=O)NC5(CO)CC5)c(C)c4)cn23)cc1C [Example 155, 4-{6-(4-{[1-(hydroxymethyl)cyclopropyl]carbamoyl}-3-methylphenyl)-8-[(3,3,3-trifluoropropyl)amino]imidazo[1,2-a]pyridin-3-yl}-N,2-dimethylbenzamide] | 21.1 |
| Cc1cc(-c2cnc3c(NCCC(F)(F)F)cc(Oc4cccc(F)c4F)cn23)ccc1C(=O)NC1(C#N)CC1 [Example 70, N-(1-cyanocyclopropyl)-4-{6-(2,3-difluorophenoxy)-8-[(3,3,3-trifluoropropyl)amino]imidazo[1,2-a]pyridin-3-yl}-2-methylbenzamide] | 3.8 |
| Cc1cc(-c2cnc3c(NCCC(F)(F)F)cc(Sc4cccc(F)c4)cn23)ccc1C(=O)NC1CC1 [Example 3-5] | 0.8 |
| CNC(=O)c1ccc(-c2cnc3c(NCCC(F)(F)F)cc(CCCO)cn23)cc1C [Example 126, 4-{6-(3-hydroxypropyl)-8-[(3,3,3-trifluoropropyl)amino]imidazo[1,2-a]pyridin-3-yl}-N,2-dimethylbenzamide] | 146 |
| Cc1ccc(F)cc1Oc1cc(NCCC(F)(F)F)c2ncc(-c3ccc(C(=O)NC4(C5CC5)CC4)c(C)c3)n2c1 [Example 62, N-[1′,1′-bi(cyclopropyl)-1-yl]-4-{6-(5-fluoro-2-methylphenoxy)-8-[(3,3,3-trifluoropropyl)amino]imidazo[1,2-a]pyridin-3-yl}-2-methylbenzamide] | 49.3 |
| Cc1cc(-c2cnc3c(NCCC(F)(F)F)cc(/C=C\CO)cn23)ccc1C(=O)N[C@@H]1C[C@H]1F (relative stereo) [Example 118, N-[rel-(1R,2R)-2-fluorocyclopropyl]-4-{6-[(1Z)-3-hydroxyprop-1-en-1-yl]-8-[(3,3,3-trifluoropropyl)amino]imidazo[1,2-a]pyridin-3-yl}-2-methylbenzamide] | 19.9 |
| Cc1cc(-c2cnc3c(NCCC(F)(F)F)cc(Oc4cccc(F)c4F)cn23)ccc1C(=O)NC1(C)CC1 [Example 71, 4-{6-(2,3-Difluorophenoxy)-8-[(3,3,3-trifluoropropyl)amino]imidazo[1,2-a]pyridin-3-yl}-2-methyl-N-(1-methylcyclopropyl)benzamide] | 1.8 |
| CCc1cc(NCCC(F)(F)F)c2ncc(-c3ccc(C(=O)NC4CC4)c(C)c3)n2c1 [Example 99] | 13.3 |
| Cc1cc(-c2cnc3c(NCCC(F)(F)F)cc(Oc4ccc(OC(F)(F)F)c(F)c4)cn23)ccc1C(=O)NC1CC1 [Example 83, N-cyclopropyl-4-{6-[3-fluoro-4-(trifluoromethoxy)phenoxy]-8-[(3,3,3-trifluoropropyl)amino]imidazo[1,2-a]pyridin-3-yl}-2-methylbenzamide] | 68.7 |
| Cc1cc(-c2cnc3c(NCCC(F)(F)F)cc(Oc4ccccc4)cn23)ccc1C(=O)NC1(C#N)CC1 [Example 57, N-(1-cyanocyclopropyl)-2-methyl-4-{6-phenoxy-8-[(3,3,3-trifluoropropyl)amino]imidazo[1,2-a]pyridin-3-yl}benzamide] | 12.6 |
| COc1ccccc1-c1cc(NCCC(F)(F)F)c2ncc(-c3ccc(C(=O)NC4(C)CC4)c(C)c3)n2c1 [Example 80] | 35.6 |
| CNC(=O)c1ccc(-c2cnc3c(NCCC(F)(F)F)cc(Oc4cccc(Cl)c4)cn23)cc1C [Example 34, 4-{6-(3-chlorophenoxy)-8-[(3,3,3-trifluoropropyl)amino]imidazo[1,2-a]pyridin-3-yl}-N,2-dimethylbenzamide] | 6.2 |
| COc1cccc(Oc2cc(NCCC(F)(F)F)c3ncc(-c4ccc(C(=O)NC5(C)CC5)c(C)c4)n3c2)c1 [Example 54, 4-{6-(3-Methoxyphenoxy)-8-[(3,3,3-trifluoropropyl)amino]imidazo[1,2-a]pyridin-3-yl}-2-methyl-N-(1-methylcyclopropyl)benzamide] | 16 |
| Cc1cc(-c2cnc3c(NCCC(F)(F)F)cc(Oc4cccc(Cl)c4)cn23)ccc1C(=O)NC1CC1F (single isomer, unassigned) [Example 39 (A or ent.-A), 4-{6-(3-chlorophenoxy)-8-[(3,3,3-trifluoropropyl)amino]imidazo[1,2-a]pyridin-3-yl}-N-{[(1S,2S) or (1R,2R)]-2-fluorocyclopropyl}-2-methylbenzamide] | 2.9 |
| C=Cc1cc(NCCC(F)(F)F)c2ncc(-c3ccc(C(=O)NC)c(C)c3)n2c1 [Example 93, N,2-dimethyl-4-{8-[(3,3,3-trifluoropropyl)amino]-6-vinylimidazo[1,2-a]pyridin-3-yl}benzamide] | 68.6 |
| CCNC(=O)c1ccc(-c2cnc3c(NCCC(F)(F)F)cc(Oc4ccccc4)cn23)cc1C [Example 60, N-ethyl-2-methyl-4-{6-phenoxy-8-[(3,3,3-trifluoropropyl)amino]imidazo[1,2-a]pyridin-3-yl}benzamide] | 2.3 |
| Cc1cc(-c2cnc3c(NCCC(F)(F)F)cc(Oc4ccccc4)cn23)ccc1C(=O)NC1(C)CC1 [Example 58, 2-Methyl-N-(1-methylcyclopropyl)-4-{6-phenoxy-8-[(3,3,3-trifluoropropyl)amino]imidazo[1,2-a]pyridin-3-yl}benzamide] | 5.7 |
| COc1ccc(Oc2cc(NCC3CCOCC3)c3ncc(-c4ccc(C(=O)NC5CC5)c(C)c4)n3c2)cc1F [Example 123, N-cyclopropyl-4-{6-(3-fluoro-4-methoxyphenoxy)-8-[(tetrahydro-2H-pyran-4-ylmethyl)amino]imidazo[1,2-a]pyridin-3-yl}-2-methylbenzamide] | 0.8 |
| Cc1cc(-c2cnc3c(NCCC(F)(F)F)cc(-c4ccc(C(=O)N[C@H]5C[C@@H]5F)c(C)c4)cn23)ccc1C(=O)NC1CC1 (relative stereo) [Example 152, 4-{3-[4-(cyclopropylcarbamoyl)-3-methylphenyl]-8-[(3,3,3-trifluoropropyl)amino]imidazo[1,2-a]pyridin-6-yl}-N-[rel-(1S,2S)-2-fluorocyclopropyl]-2-methylbenzamide] | 0.8 |
| CNC(=O)c1ccc(-c2cnc3c(NCCC(F)(F)F)cc(CCO)cn23)cc1C [Example 142, 4-{6-(2-Hydroxyethyl)-8-[(3,3,3-trifluoropropyl)amino]imidazo[1,2-a]pyridin-3-yl}-N,2-dimethylbenzamide] | 244 |
| CNC(=O)c1ccc(-c2cnc3c(NCCC(F)(F)F)cc(-c4ccc(C(N)=O)c(C)c4)cn23)cc1C [Example 160, 4-{6-(4-carbamoyl-3-methylphenyl)-8-[(3,3,3-trifluoropropyl)amino]imidazo[1,2-a]pyridin-3-yl}-N,2-dimethylbenzamide] | 2.3 |
| CNC(=O)c1ccc(-c2cnc3c(NCCC(F)(F)F)cc(-c4ccc(C(=O)OC)c(C)c4)cn23)cc1C [Example 140, Methyl 2-methyl-4-{3-[3-methyl-4-(methylcarbamoyl)phenyl]-8-[(3,3,3-trifluoropropyl)amino]imidazo[1,2-a]pyridin-6-yl}benzoate] | 36.1 |
| CCc1cc(NCCC(F)(F)F)c2ncc(-c3ccc(C(=O)NC4(C#N)CC4)c(C)c3)n2c1 [Example 103] | 156 |
| Cc1cc(-c2cnc3c(NCCC(F)(F)F)cc(C#CCO)cn23)ccc1C(=O)NC1(C)CC1 [Example 22, 4-{6-(3-hydroxyprop-1-yn-1-yl)-8-[(3,3,3-trifluoropropyl)amino]imidazo[1,2-a]pyridin-3-yl}-2-methyl-N-(1-methylcyclopropyl)benzamide] | 50 |
| Cc1cc(-c2cnc3c(NCCC(F)(F)F)cc(Oc4ccc(OC(F)(F)F)c(F)c4)cn23)ccc1C(=O)NC1(C#N)CC1 [Example 84, N-(1-cyanocyclopropyl)-4-{6-[3-fluoro-4-(trifluoromethoxy)phencow]-8-[(3,3,3-trifluoropropyl)amino]imidazo[1,2-a]pyridin-3-yl}-2-methylbenzamide] | 243 |
